Columns and labels:
Japanese bulrush = assay: Test Example 1: herbicidal activity, application before weed generation under submerged conditions (Table 16, symbol B); assay type: in vivo, Japanese bulrush (Schoenoplectus juncoides); conditions: 320 g/ha applied herbicide
Procedure, shortened: (§1)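 Alluvial soil was flooded to 4 cm depth, weed seeds were sown mixed and 2.5-leaf rice seedlings were transplanted. On sowing day, the compound's emulsion, diluted in water to a set dose, was applied to the water surface. Plants grew at 25–30 °C and were scored 0–5 after three weeks.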

Italian ryegrass [1] = assay: Test Example 4: herbicidal effect by soil treatment (Table 19, symbol K); assay type: in vivo, Italian ryegrass (Lolium multiflorum); conditions: amount of applied herbicide 320 g/ha
Procedure, shortened: (§2)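 Pre-emergence style soil spray: seeds under ~1.5 cm sterilized diluvial soil received a uniform coat of emulsion diluted to the predetermined herbicide amount. Greenhouse 25–30° C; readout at week three on previously defined criteria.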

oval-leafed pondweed = assay: Test Example 1: herbicidal activity, application before weed generation under submerged conditions (Table 16, symbol C); assay type: in vivo, oval-leafed pondweed (Monochoria vaginalis); conditions: 320 g/ha applied herbicide
Procedure, shortened: as §1

wild oat [2] = assay: Test Example 4: herbicidal effect by soil treatment (Table 19, symbol I); assay type: in vivo, wild oat (Avena fatua); conditions: amount of applied herbicide 320 g/ha
Procedure, shortened: as §2

chickweed [3] = assay: Test Example 4: herbicidal effect by soil treatment (Table 19, symbol P); assay type: in vivo, common chickweed (Stellaria media); conditions: amount of applied herbicide 320 g/ha
Procedure, shortened: as §2

late watergrass = assay: Test Example 1: herbicidal activity, application before weed generation under submerged conditions (Table 16, symbol A); assay type: in vivo, late watergrass (Echinochloa oryzicola); conditions: 320 g/ha applied herbicide
Procedure, shortened: as §1

velvetleaf [4] = assay: Test Example 5: herbicidal effect by foliage application, plastic box (Table 20, symbol M); assay type: in vivo, velvetleaf (Abutilon theophrasti); conditions: foliage application, 320 g/ha, evaluated three weeks after application
Procedure, shortened: (§3)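 Plants were sown into sterilized diluvial soil under about 1.5 cm cover and kept in a greenhouse at 25° C. to 30° C. Fourteen days on, foliage received an even spray of the diluted emulsion. Herbicidal or crop effect was judged three weeks afterwards.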

windgrass [5] = assay: Test Example 4: herbicidal effect by soil treatment (Table 19, symbol L); assay type: in vivo, windgrass (Apera spica-venti); conditions: amount of applied herbicide 320 g/ha
Procedure, shortened: as §2

chickweed [6] = assay: Test Example 5: herbicidal effect by foliage application, plastic box (Table 20, symbol P); assay type: in vivo, common chickweed (Stellaria media); conditions: foliage application, 320 g/ha, evaluated three weeks after application
Procedure, shortened: as §3

redroot pigweed [7] = assay: Test Example 4: herbicidal effect by soil treatment (Table 19, symbol N); assay type: in vivo, redroot pigweed (Amaranthus retroflexus); conditions: amount of applied herbicide 320 g/ha
Procedure, shortened: as §2

persian speedwell [8] = assay: Test Example 5: herbicidal effect by foliage application, plastic box (Table 20, symbol R); assay type: in vivo, Persian speedwell (Veronica persica); conditions: foliage application, 320 g/ha, evaluated three weeks after application
Procedure, shortened: as §3

lambsquarters [9] = assay: Test Example 4: herbicidal effect by soil treatment (Table 19, symbol O); assay type: in vivo, lambsquarters (Chenopodium album); conditions: amount of applied herbicide 320 g/ha
Procedure, shortened: as §2

blackgrass [10] = assay: Test Example 4: herbicidal effect by soil treatment (Table 19, symbol J); assay type: in vivo, blackgrass (Alopecurus myosuroides); conditions: amount of applied herbicide 320 g/ha
Procedure, shortened: as §2

barnyard grass [11] = assay: Test Example 5: herbicidal effect by foliage application, plastic box (Table 20, symbol H); assay type: in vivo, barnyard grass (Echinochloa crus-galli); conditions: foliage application, 320 g/ha, evaluated three weeks after application
Procedure, shortened: as §3

windgrass [12] = assay: Test Example 5: herbicidal effect by foliage application, plastic box (Table 20, symbol L); assay type: in vivo, windgrass (Apera spica-venti); conditions: foliage application, 320 g/ha, evaluated three weeks after application
Procedure, shortened: as §3

barnyard grass [13] = assay: Test Example 3: herbicidal effect by foliage application, Wagner pot (Table 18, symbol H); assay type: in vivo, barnyard grass (Echinochloa crus-galli); conditions: amount of applied herbicide 320 g/ha
Procedure, shortened: (§4)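 Plants were sown in alluvial soil held under 0.1–0.5 cm standing water and grown 14 days in a greenhouse at 25–30 °C. An emulsifiable formulation, water-diluted to the set dose, was then sprayed onto the foliage, and effects were scored three weeks later using previously defined criteria.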

redroot pigweed [14] = assay: Test Example 5: herbicidal effect by foliage application, plastic box (Table 20, symbol N); assay type: in vivo, redroot pigweed (Amaranthus retroflexus); conditions: foliage application, 320 g/ha, evaluated three weeks after application
Procedure, shortened: as §3

southern crabgrass [15] = assay: Test Example 5: herbicidal effect by foliage application, plastic box (Table 20, symbol F); assay type: in vivo, southern crabgrass (Digitaria ciliaris); conditions: foliage application, 320 g/ha, evaluated three weeks after application
Procedure, shortened: as §3

wild oat [16] = assay: Test Example 5: herbicidal effect by foliage application, plastic box (Table 20, symbol I); assay type: in vivo, wild oat (Avena fatua); conditions: foliage application, 320 g/ha, evaluated three weeks after application
Procedure, shortened: as §3

blackgrass [17] = assay: Test Example 5: herbicidal effect by foliage application, plastic box (Table 20, symbol J); assay type: in vivo, blackgrass (Alopecurus myosuroides); conditions: foliage application, 320 g/ha, evaluated three weeks after application
Procedure, shortened: as §3

southern crabgrass [18] = assay: Test Example 4: herbicidal effect by soil treatment (Table 19, symbol F); assay type: in vivo, southern crabgrass (Digitaria ciliaris); conditions: amount of applied herbicide 320 g/ha
Procedure, shortened: as §2

rice flat sedge = assay: Test Example 3: herbicidal effect by foliage application, Wagner pot (Table 18, symbol E); assay type: in vivo, rice flat sedge (Cyperus iria); conditions: amount of applied herbicide 320 g/ha
Procedure, shortened: as §4

green foxtail [19] = assay: Test Example 5: herbicidal effect by foliage application, plastic box (Table 20, symbol G); assay type: in vivo, green foxtail (Setaria viridis); conditions: foliage application, 320 g/ha, evaluated three weeks after application
Procedure, shortened: as §3

Chinese sprangletop = assay: Test Example 3: herbicidal effect by foliage application, Wagner pot (Table 18, symbol D); assay type: in vivo, chinese sprangletop (Leptochloa chinensis); conditions: amount of applied herbicide 320 g/ha
Procedure, shortened: as §4

green foxtail [20] = assay: Test Example 4: herbicidal effect by soil treatment (Table 19, symbol G); assay type: in vivo, green foxtail (Setaria viridis); conditions: amount of applied herbicide 320 g/ha
Procedure, shortened: as §2

lambsquarters [21] = assay: Test Example 5: herbicidal effect by foliage application, plastic box (Table 20, symbol O); assay type: in vivo, lambsquarters (Chenopodium album); conditions: foliage application, 320 g/ha, evaluated three weeks after application
Procedure, shortened: as §3

persian speedwell [22] = assay: Test Example 4: herbicidal effect by soil treatment (Table 19, symbol R); assay type: in vivo, Persian speedwell (Veronica persica); conditions: amount of applied herbicide 320 g/ha
Procedure, shortened: as §2

velvetleaf [23] = assay: Test Example 4: herbicidal effect by soil treatment (Table 19, symbol M); assay type: in vivo, velvetleaf (Abutilon theophrasti); conditions: amount of applied herbicide 320 g/ha
Procedure, shortened: as §2

Italian ryegrass [24] = assay: Test Example 5: herbicidal effect by foliage application, plastic box (Table 20, symbol K); assay type: in vivo, Italian ryegrass (Lolium multiflorum); conditions: foliage application, 320 g/ha, evaluated three weeks after application
Procedure, shortened: as §3

barnyard grass [25] = assay: Test Example 4: herbicidal effect by soil treatment (Table 19, symbol H); assay type: in vivo, barnyard grass (Echinochloa crus-galli); conditions: amount of applied herbicide 320 g/ha
Procedure, shortened: as §2

SMILES | Herbicidal effect on B: Japanese bulrush (grade 0-5) (Japanese bulrush) | K: Italian ryegrass, herbicidal effect rating (Italian ryegrass [1]) | Herbicidal effect on C: oval-leafed pondweed (grade 0-5) (oval-leafed pondweed) | I: wild oat, herbicidal effect rating (wild oat [2]) | P: chickweed, herbicidal effect rating (chickweed [3]) | Herbicidal effect on A: late watergrass (grade 0-5) (late watergrass) | herbicidal effect on M: velvetleaf (criteria 0-5) (velvetleaf [4]) | L: windgrass, herbicidal effect rating (windgrass [5]) | herbicidal effect on P: chickweed (criteria 0-5) (chickweed [6]) | N: redroot pigweed, herbicidal effect rating (redroot pigweed [7]) | herbicidal effect on R: persian speedwell (criteria 0-5) (persian speedwell [8]) | O: lambsquarters, herbicidal effect rating (lambsquarters [9]) | J: blackgrass, herbicidal effect rating (blackgrass [10]) | herbicidal effect on H: barnyard grass (criteria 0-5) (barnyard grass [11]) | herbicidal effect on L: windgrass (criteria 0-5) (windgrass [12]) | herbicidal effect on H: barnyard grass (barnyard grass [13]) | herbicidal effect on N: redroot pigweed (criteria 0-5) (redroot pigweed [14]) | herbicidal effect on F: southern crabgrass (criteria 0-5) (southern crabgrass [15]) | herbicidal effect on I: wild oat (criteria 0-5) (wild oat [16]) | herbicidal effect on J: blackgrass (criteria 0-5) (blackgrass [17]) | further results
CCCC(=O)Oc1c(C)nn(C)c(=O)c1-c1c(-c2ccccc2F)sc2ccc(F)cc12 [2-200] | 0 (Herbicidal rate of 5% or less (almost no effect)) | 3 (Herbicidal rate of 40% or more and less than 70%) | 0 (Herbicidal rate of 5% or less (almost no effect)) | 0 (Herbicidal rate of 5% or less (almost no effect)) | 1 (Herbicidal rate of 5% or more and less than 20%) | 3 (Herbicidal rate of 40% or more and less than 70%) | 5 (Herbicidal rate of 90% or more (almost completely withered)) | 0 (Herbicidal rate of 5% or less (almost no effect)) | 5 (Herbicidal rate of 90% or more (almost completely withered)) | 4 (Herbicidal rate of 70% or more and less than 90%) | 4 (Herbicidal rate of 70% or more and less than 90%) | 4 (Herbicidal rate of 70% or more and less than 90%) | 0 (Herbicidal rate of 5% or less (almost no effect)) | 3 (Herbicidal rate of 40% or more and less than 70%) | 3 (Herbicidal rate of 40% or more and less than 70%) | 4 (Herbicidal rate of 70% or more and less than 90%) | 5 (Herbicidal rate of 90% or more (almost completely withered)) | 2 (Herbicidal rate of 20% or more and less than 40%) | 0 (Herbicidal rate of 5% or less (almost no effect)) | 1 (Herbicidal rate of 5% or more and less than 20%) | F: southern crabgrass, herbicidal effect rating (southern crabgrass [18]): 1 (Herbicidal rate of 5% or more and less than 20%); herbicidal effect on E: rice flat sedge (rice flat sedge): 5 (Herbicidal rate of 90% or more (almost completely withered)); herbicidal effect on G: green foxtail (criteria 0-5) (green foxtail [19]): 4 (Herbicidal rate of 70% or more and less than 90%); herbicidal effect on D: Chinese sprangletop (Chinese sprangletop): 5 (Herbicidal rate of 90% or more (almost completely withered)); G: green foxtail, herbicidal effect rating (green foxtail [20]): 1 (Herbicidal rate of 5% or more and less than 20%); herbicidal effect on O: lambsquarters (criteria 0-5) (lambsquarters [21]): 3 (Herbicidal rate of 40% or more and less than 70%); R: persian speedwell, herbicidal effect rating (persian speedwell [22]): 3 (Herbicidal rate of 40% or more and less than 70%); M: velvetleaf, herbicidal effect rating (velvetleaf [23]): 0 (Herbicidal rate of 5% or less (almost no effect)); herbicidal effect on K: Italian ryegrass (criteria 0-5) (Italian ryegrass [24]): 4 (Herbicidal rate of 70% or more and less than 90%); H: barnyard grass, herbicidal effect rating (barnyard grass [25]): 3 (Herbicidal rate of 40% or more and less than 70%)
CCCC(=O)Oc1c(C)nn(C)c(=O)c1-c1c(-c2cccc(OC)c2)sc2ccc(F)cc12 [2-210] | 0 (Herbicidal rate of 5% or less (almost no effect)) | 4 (Herbicidal rate of 70% or more and less than 90%) | 0 (Herbicidal rate of 5% or less (almost no effect)) | 0 (Herbicidal rate of 5% or less (almost no effect)) | 4 (Herbicidal rate of 70% or more and less than 90%) | 3 (Herbicidal rate of 40% or more and less than 70%) | 5 (Herbicidal rate of 90% or more (almost completely withered)) | 0 (Herbicidal rate of 5% or less (almost no effect)) | 5 (Herbicidal rate of 90% or more (almost completely withered)) | 5 (Herbicidal rate of 90% or more (almost completely withered)) | 5 (Herbicidal rate of 90% or more (almost completely withered)) | 1 (Herbicidal rate of 5% or more and less than 20%) | 1 (Herbicidal rate of 5% or more and less than 20%) | 4 (Herbicidal rate of 70% or more and less than 90%) | 5 (Herbicidal rate of 90% or more (almost completely withered)) | 5 (Herbicidal rate of 90% or more (almost completely withered)) | 5 (Herbicidal rate of 90% or more (almost completely withered)) | 5 (Herbicidal rate of 90% or more (almost completely withered)) | 0 (Herbicidal rate of 5% or less (almost no effect)) | 3 (Herbicidal rate of 40% or more and less than 70%) | F: southern crabgrass, herbicidal effect rating (southern crabgrass [18]): 4 (Herbicidal rate of 70% or more and less than 90%); herbicidal effect on E: rice flat sedge (rice flat sedge): 5 (Herbicidal rate of 90% or more (almost completely withered)); herbicidal effect on G: green foxtail (criteria 0-5) (green foxtail [19]): 5 (Herbicidal rate of 90% or more (almost completely withered)); herbicidal effect on D: Chinese sprangletop (Chinese sprangletop): 5 (Herbicidal rate of 90% or more (almost completely withered)); G: green foxtail, herbicidal effect rating (green foxtail [20]): 4 (Herbicidal rate of 70% or more and less than 90%); herbicidal effect on O: lambsquarters (criteria 0-5) (lambsquarters [21]): 4 (Herbicidal rate of 70% or more and less than 90%); R: persian speedwell, herbicidal effect rating (persian speedwell [22]): 5 (Herbicidal rate of 90% or more (almost completely withered)); M: velvetleaf, herbicidal effect rating (velvetleaf [23]): 2 (Herbicidal rate of 20% or more and less than 40%); herbicidal effect on K: Italian ryegrass (criteria 0-5) (Italian ryegrass [24]): 4 (Herbicidal rate of 70% or more and less than 90%); H: barnyard grass, herbicidal effect rating (barnyard grass [25]): 4 (Herbicidal rate of 70% or more and less than 90%)
